Experimental data as given in patent publication US8563594B2, “S1P3 receptor inhibitors for treating pain” (Allergan, Inc., priority 2007, dated 2013).

Molecular target: S1P1 receptor (Homo sapiens (Human), UniProt P21453)
Assay: FLIPR assay (Ca2+ response), S1P1 receptor
Type: cell-based
Conditions: receptor activity at highest dose tested (10 μM) relative to 5 nM sphingosine-1-phosphate

S1P1 receptor, sequence (P21453 whole entry): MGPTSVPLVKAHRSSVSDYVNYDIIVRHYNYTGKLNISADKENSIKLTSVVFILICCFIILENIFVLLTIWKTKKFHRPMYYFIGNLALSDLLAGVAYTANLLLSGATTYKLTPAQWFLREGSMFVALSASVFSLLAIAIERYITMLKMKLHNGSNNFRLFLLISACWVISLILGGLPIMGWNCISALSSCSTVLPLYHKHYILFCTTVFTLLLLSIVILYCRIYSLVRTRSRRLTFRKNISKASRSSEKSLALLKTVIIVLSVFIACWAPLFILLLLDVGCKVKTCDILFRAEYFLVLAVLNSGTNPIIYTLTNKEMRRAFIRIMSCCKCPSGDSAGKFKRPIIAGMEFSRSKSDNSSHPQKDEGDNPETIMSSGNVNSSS

S1P1 percent efficacy (in parenthesis) [%] | S1P1 percent efficacy (in parenthesis) (selective inhibitor table) [%] | Structure (SMILES)
36 | – | Cc1ccc(-c2ccc(CNCCCP(=O)(O)O)nc2-c2ccccc2)cc1 [Compound 147]
57 | – | CCc1ccc(-c2ccc(CNCCCP(=O)(O)O)nc2-c2ccccc2)cc1 [Compound 148]
69 | – | CCCc1ccc(-c2ccc(CNCCCP(=O)(O)O)nc2-c2ccccc2)cc1 [Compound 154]
– | 57 | CCc1ccc(-c2ccc(CNCCCP(=O)(O)O)nc2-c2ccccc2)cc1 [drawing 165]
